In patent US3947411A, “Novel 1-aryl-2-arylalkyl-3-or-4-[4'-(substituted-alkyl)piperazino-1']butanols- 2-or-butenes-1, and methods of manufacture thereof” (Warner-Lambert Company, priority 1972, dated 1976):
Values after ≈ are worked out from the molar mass of the structure shown.

Tests used:
Solubility in water = type: physicochemical; details: hydrochlorides or oxalates, read-out: solubilities (in water)
Procedure: The following list contains examples of those compounds which are made according to the methods disclosed. (The individual compounds are identified by elementary analyses and infrared spectra, by ultra-violet or nuclear resonance spectra, if necessary.) Individual melting points and solubilities (in water) are also given as is the method by which each compound is prepared.
The melting points and solubilities are given for the Hydrochlorides I - XVI; XVIII - XXVII; XXIX - XXXV; XXXVII - XLII; XLIV - LXII; LXIV - LXVII, and the Oxalates XVII; […]; XXXVI; LXIII.

C. albicans [1] = experiment: Minimum inhibitory concentration for fungi in presence of serum, C. albicans (Table VI); type: cell-based; details: Candida albicans; Sabouraud nutrient broth + 10% bovine serum, 28°C, 48 hours
A. niger [2] = experiment: Minimum inhibitory concentration for fungi in presence of serum, A. niger (Table VI); type: cell-based; details: Aspergillus niger; Sabouraud nutrient broth + 10% bovine serum, 28°C, 48 hours
Candida albicans = experiment: Agar well inhibition zone test against fungi, Candida albicans (Table II); details: quantity per well giving inhibition zone (500, 50, 5 μg tested); Sabouraud agar, 28°, 48 hours
Procedure: The efficacy of the compounds against fungi was tested as follows:
The test organisms, in this case the blastomycete Candida albicans and the mold Aspergillus niger, were inoculated onto Sabouraud agar plates by pouring a photometrically adjusted standard suspension of organisms on the plate. After inoculation, wells with a diameter of 5.0 mm were punched in the agar, and filled with 50 ul of the compound solution mentioned before. The quantity of compound applied thus amounted to 500 μg, 50 μg and 5 μg. After incubation at 28° for 48 hours, the quantity of compound was determined at which an inhibition of the organism's growth, in form of an inhibition zone around the corresponding well, was present.

Aspergillus niger = experiment: Agar well inhibition zone test against fungi, Aspergillus niger (Table II); details: quantity per well giving inhibition zone (500, 50, 5 μg tested); Sabouraud agar, 28°, 48 hours
Escherichia coli = experiment: Agar well inhibition zone test against bacteria, Escherichia coli (Table III); details: quantity per well giving inhibition zone (500, 50, 5 μg tested); nutrient agar, 37°, 24 hours
Staphylococcus aureus = experiment: Agar well inhibition zone test against bacteria, Staphylococcus aureus (Table III); details: quantity per well giving inhibition zone (500, 50, 5 μg tested); nutrient agar, 37°, 24 hours
Procedure: The efficacy of the compounds against bacteria was tested as follows:
The test organisms, in this case Staphylococcus aureus and Escherichia coli, were inoculated on nutrient agar as described in Example 12, wells were punched, and the solutions of the compounds were transferred to fill the wells. The quantity of compound in the wells amounted again to 500 μg, 50 μg and 5 μg.
After incubation a 37° for 24 hours the quantity of compound was determined at which an inhibition of the organism's growth, in the form of an inhibition zone around the corresponding well, occurred.

Staph. aureus = experiment: Minimum inhibitory concentration for bacteria, tube dilution, Staph. aureus (Table V); details: Staphylococcus aureus, 48 h, read-out: Minimum Inhibitory Concentration, Staph. aureus
Procedure: A tube dilution series of the respective compound in nutrient broth whose individual tubes contained concentrations of 1024 μg, 512 μg, 256 μg, 128 μg, 64 μg, 32 μg, 1 μg, 8 μg, 4 μg, 2 μg, 1.1 μg and 0.5 μg/ml was prepared and inoculated with a photometrically standardized suspension of the test organisms.

A. niger [3] = experiment: Minimum inhibitory concentration for fungi, tube dilution, A. niger (Table IV); details: Aspergillus niger, 48 h, read-out: Minimum Inhibitory Concentration, A. niger
Procedure: (§1) A tube dilution series of the respective compound in Sabouraud nutrient broth, whose individual tubes contained concentrations of 1024 μg, 512 μg, 256 μg, 128 μg, 64 μg, 32 μg, 16 μg, 8 μg, 4 μg, 2 μg, 1.1 μg and 0.5 μg/ml, was prepared and inoculated with a photometrically standardized suspension of the test organisms or the spores thereof.

C. albicans [4] = experiment: Minimum inhibitory concentration for fungi, tube dilution, C. albicans (Table IV); details: Candida albicans, 48 h, read-out: Minimum Inhibitory Concentration, C. albicans
Procedure: as §1

Row | Structure (SMILES) | solubility (Solubility in water) [mg/mL] | MIC (C. albicans [1]) [µg/mL] | MIC (A. niger [2]) [µg/mL] | Inhibition Area at μg, Cand. albicans (Candida albicans) [µg] | Inhibition Area at μg, Asp. niger (Aspergillus niger) [µg] | Inhibition Area at μg, E. coli (Escherichia coli) [µg] | Inhibition Area at μg, Staph. aureus (Staphylococcus aureus) [µg] | MIC (Staph. aureus) [µg/mL] | MIC (A. niger [3]) [µg/mL] | MIC (C. albicans [4]) [µg/mL]
1 | CC(c1ccccc1)N1CCN(CCN2CCN(C(C)C(O)(Cc3ccccc3)Cc3ccccc3)CC2)CC1 (stereo not drawn) [XIII, 1-phenyl-2-benzyl-3-{4'-[β-(4"-α-phenethyl-piperazino-1")-ethyl]-piperazino-1'}-butanol-2] | 100 (≈ 185000 µM) | 513 | 256 | 500 | 500 | 500 | 5 | 32 (≈ 59.2 µM) | – | –
2 | CC(C(=Cc1ccccc1)Cc1ccccc1)N1CCN(CCN2CCN(Cc3ccccc3)CC2)CC1 (stereo not drawn) [XXXVII, 1-phenyl-2-benzyl-3-{4'-[β-(4"-benzylpiperazino-1")-ethyl]-piperazino-1'}-butene-1] | 50 (≈ 98300 µM) | 512 | – | 5 | 5 | 500 | 5 | 16 (≈ 31.4 µM) | 128 (≈ 252 µM) | 8 (≈ 15.7 µM)
3 | Cc1cccc(CC(O)(Cc2cccc(C)c2)C(C)N2CCN(CCN3CCCCC3)CC2)c1 (stereo not drawn) [XXI, 1-m-tolyl-2-m-methylbenzyl-3-[4'-(β-piperidino-ethyl)-piperazino-1']-butanol-2] | 100 (≈ 216000 µM) | 256 | 128 | 50 | 5 | > 500 | 5 | 64 (≈ 138 µM) | 4 (≈ 8.63 µM) | 8 (≈ 17.3 µM)
4 | CN1CCN(CCCCCCN2CCN(CCC(=Cc3ccccc3)Cc3ccccc3)CC2)CC1 [LXV, 1-phenyl-2-benzyl-4-[4'-w-(4"-methyl-piperazino-1")-n-hexyl-piperazino-1']-butene-1] | 100 (≈ 205000 µM) | 32 | 8 | 5 | 5 | 500 | 500 | – | 8 (≈ 16.4 µM) | 32 (≈ 65.5 µM)
5 | CC1CCN(CCN2CCN(C(C)C(=Cc3ccccc3)Cc3ccccc3)CC2)CC1 (stereo not drawn) [XXXV, 1-phenyl-2-benzyl-3-{4'-[β-(4"-methylpiperidino)-ethyl]-piperazino-1'}-butene-1] | 10 (≈ 23200 µM) | 32 | 128 | 50 | 50 | 500 | 50 | 256 (≈ 593 µM) | 8 (≈ 18.5 µM) | 8 (≈ 18.5 µM)
6 | CC(C(=Cc1ccccc1)Cc1ccccc1)N1CCN(CCN(C(C)C)C(C)C)CC1 (stereo not drawn) [XXVIII, 1-phenyl-2-benzyl-3-[4'-(β-diisopropylamino-ethyl)-piperazino-1']-butene-1] | 10 (≈ 23100 µM) | 256 | > 1020 | 50 | 50 | 500 | 50 | 64 (≈ 148 µM) | 32 (≈ 73.8 µM) | 64 (≈ 148 µM)
7 | CC(N1CCN(CCCCCCN2CCCCC2)CC1)C(O)(Cc1ccccc1)Cc1ccccc1 (stereo not shown) [XX, 1-phenyl-2-benzyl-3-[4'-(w-piperidino-n-hexyl)-piperazino-1']-butanol-2] | 100 (≈ 203000 µM) | 128 | 8 | 50 | 5 | 500 | 50 | 128 (≈ 260 µM) | 4 (≈ 8.13 µM) | 64 (≈ 130 µM)
8 | CC(C(=Cc1ccccc1)Cc1ccccc1)N1CCN(CCN2CCN(C(C)c3ccccc3)CC2)CC1 (stereo not drawn) [XXXVIII, 1-phenyl-2-benzyl-3-{4'-[β-(4"-α-phenethyl-piperazino-1")-ethyl]-piperazino-1'}-butene-1] | 100 (≈ 191000 µM) | > 1020 | > 1020 | 500 | 500 | 500 | 5 | 128 (≈ 245 µM) | – | –
9 | CC(N1CCN(CCN2CCN(C)CC2)CC1)C(O)(Cc1ccccc1)Cc1ccccc1 (stereo not drawn) [X, 1-phenyl-2-benzyl-3-{4'-[β-(4"-methyl-piperazino-1")-ehtyl]-piperazino-1'}-butanol-2] | 100 (≈ 222000 µM) | 16 | 16 | 50 | 50 | 500 | 500 | – | 16 (≈ 35.5 µM) | 16 (≈ 35.5 µM)
10 | OC(Cc1ccccc1)(Cc1ccccc1)CN1CCN(CCN2CCCCC2)CC1 [LIX, β,β '-diphenyl-β"-[4'-(β-piperidino-ethyl)-piperazino-1']-t-butanol] | 100 (≈ 237000 µM) | – | 64 | 500 | 5 | 500 | 50 | 1020 (≈ 2430 µM) | 64 (≈ 152 µM) | –
11 | CC(C(=Cc1ccccc1)Cc1ccccc1)N1CC[N+]2(CCCCCC2)CC1 (stereo not shown) [LXVII, hexahydro-azepinium-1-spiro-1'-piperazinium-4'-(3-benzyl-4-phenyl-but-3-en-2-yl)-chloride] | 10 | 64 | 128 | 50 | 50 | 500 | 50 | 8 | 128 | 128
12 | CC(N1CCN(Cc2ccncc2)CC1)C(O)(Cc1ccccc1)Cc1ccccc1 (stereo not shown) [XXIV, 1-phenyl-2-benzyl-3-[4'-(4"-pyridylmethyl)-piperazino-1']-butanol-2] | 100 (≈ 241000 µM) | 128 | 128 | > 500 | > 500 | > 500 | > 500 | – | – | –
13 | OC(CCN1CCN(CCN2CCCCC2)CC1)(Cc1ccccc1)Cc1ccccc1 [LX, 1-phenyl-2-benzyl-4-[4'-(β-piperidinoethyl)-piperazino-1']-butanol-2] | 100 (≈ 230000 µM) | – | 8 | 500 | 50 | 500 | 500 | – | 64 (≈ 147 µM) | –
14 | CC(C(=Cc1ccccc1)Cc1ccccc1)N1CCN(CCN2CCN(C)CC2)CC1 (stereo not drawn) [XXXVI, 1-phenyl-2-benzyl-3-{4'-[β-(4"-methylpiperazino-1")-ethyl]-piperazino-1'}-butene-1] | < 10 | 32 | 8 | 50 | 50 | > 500 | 500 | – | 2 (≈ 4.62 µM) | 4 (≈ 9.25 µM)
